# Values of other authors, collected in patent US20240101656A1, “PLK1 INHIBITOR IN COMBINATION WITH ANTI-ANGIOGENICS FOR TREATING METASTATIC CANCER” (CARDIFF ONCOLOGY, INC., priority 2022, published 2024).
# Read-outs that look alike come from different tables or passages of the source.
# Assays:
# [1] = 2nd line
# [2] = system: AML; conditions: in combination with LDAC
# [3] = system: patients with AML who were treatment naïve yet unsuitable for induction therapy; conditions: intravenously, in combination with LDAC
# [4] = system: xenograft tumor; conditions: well tolerated doses, oral administration
# [5] = system: disseminated models of AML
# [6] = system: cell lines, both from solid as well as hematologic tumors
# [7] = system: HT29 human colon adenocarcinoma xenografts; conditions: combination therapy with irinotecan
# [8] = system: AML cell lines
# [9] = system: cancer cell lines
# [10] = system: patients with advanced/metastatic solid tumors
# [11] = system: xenograft models of AML; conditions: in vivo
# [12] = target: PLK1 (Homo sapiens, UniProt P53350)
# [13] = in vivo
# Sequence of PLK1 (P53350 whole entry): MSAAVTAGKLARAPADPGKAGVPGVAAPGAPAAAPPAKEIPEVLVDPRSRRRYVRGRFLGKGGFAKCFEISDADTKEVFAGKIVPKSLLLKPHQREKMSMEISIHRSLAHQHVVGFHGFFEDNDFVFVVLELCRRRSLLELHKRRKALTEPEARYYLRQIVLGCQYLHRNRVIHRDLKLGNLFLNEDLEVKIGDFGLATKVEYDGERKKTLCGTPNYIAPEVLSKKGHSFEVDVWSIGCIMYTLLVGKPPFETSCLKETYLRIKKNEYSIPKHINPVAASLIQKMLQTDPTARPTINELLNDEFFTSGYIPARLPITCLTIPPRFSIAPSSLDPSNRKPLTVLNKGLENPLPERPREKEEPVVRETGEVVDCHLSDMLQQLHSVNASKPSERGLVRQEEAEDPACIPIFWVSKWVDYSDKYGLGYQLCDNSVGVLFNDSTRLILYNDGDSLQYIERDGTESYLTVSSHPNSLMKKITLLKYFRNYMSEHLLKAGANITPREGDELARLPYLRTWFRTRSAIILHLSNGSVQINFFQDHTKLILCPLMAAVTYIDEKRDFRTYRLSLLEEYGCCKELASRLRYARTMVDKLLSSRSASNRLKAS
compound,measurement,setting,value
"bev: anti-angiogenics; Bevacizumab (also referred to herein as ""bev"")",mOS,[1]; bev naïve,13.9 months
same,mPFS,[1]; bev naïve,6.9 months
same,mOS,[1]; prior bev,12.5 months
same,mPFS,[1]; prior bev,6.7 months
CC[C@@H]1C(=O)N(C)c2cnc(Nc3ccc(C(=O)N[C@H]4CC[C@H](N5CCN(CC6CC6)CC5)CC4)cc3OC)nc2N1C(C)C [volasertib (BI6727)],benefit of the combination,[2],no benefit
same,risk of severe infections,[2],increased risk of severe infections
same,OS compared with LDAC alone,[3],significant increase in OS
"CN1CCN(c2ccc(OC(F)(F)F)c(Nc3ncc4c(n3)-c3c(c(C(N)=O)nn3CCO)CC4)c2)CC1 [onvansertib, 1-(2-hydroxyethyl)-8-{[5-(4-methylpiperazin-1-yl)-2-(trifluoromethoxy)phenyl]amino}-4,5-dihydro-1H-pyrazolo[4,3-h]quinazoline-3-carboxamide]",xenograft tumor growth,[4],inhibits xenograft tumor growth
same,survival of animals,[5]; combination therapy with cytarabine,prolonged survival
same,cytarabine antitumor activity,[5]; in combination with cytarabine,significantly increased
same,activity in proliferation assays,[6],low nanomolar activity
same,tumor regression compared to each agent alone,[7],enhanced tumor regression
same,concentrations inhibiting cell proliferation,[8],nanomolar concentrations
same,cell-cycle effect,[9],mitotic cell-cycle arrest followed by apoptosis
same,primary dose-limiting toxicities,[10]; in vivo,neutropenia and thrombocytopenia
same,recovery from hematologic toxicities,[10]; reversible,≤ 3 weeks
same,tumor growth,[11],inhibited
same,"specificity for PLK1 among a panel of 296 kinases, including other PLK members",[12],high specificity
same,oral bioavailability,[13],good oral bioavailability
